Data set [1] relates to EGFR ligand (heregulin, TGFα, HB-EGF, amphiregulin, and EGF). The note with it: cited from earlier work.
In a further data set the test system is PTK7. The note with it: cited from earlier work.
Data set [2] concerns HT1080 cells. As to conditions: cited from earlier work.
Another data set relates to CXCL16. The data set can be described thus: CXCL16 shedding inhibition in HTSMC. It counts as cell-based, human. As to conditions: for CXCL16 shedding inhibition: HTSMC, 10 μM; for inhibition at 10 µM: Homo sapiens, read-out: CXCL16 shedding inhibition.
The next data set has as its system betacellulin. The data set can be described thus: Inhibition of betacellulin shedding in A549 cells. It counts as cell-based. The note with it: for inhibition at 40 µM: Homo sapiens, A549, read-out: BTC (betacellulin) shedding inhibition.
For a further data set, the system named is TGFα. The data set can be described thus: Inhibition of TGFα shedding in A549 cells. The note with it: for inhibition at 40 µM: Homo sapiens, A549, read-out: TGFα shedding inhibition. It counts as cell-based.
The next data set concerns HEPG2 cells. The data set can be described thus: CellTiter Glo cell viability assay. As to conditions: 72 h, up to 33 μM. It counts as cell-based.
The next data set relates to Heregulin. Briefly: Inhibition of heregulin shedding in A549 cells. It counts as cell-based. The note with it: for inhibition at 40 µM: Homo sapiens, A549, read-out: Heregulin shedding inhibition.
The test system of a further data set is MDA-MB-231 cells. Briefly: CellTiter Glo cell viability assay. It counts as cell-based. The note with it: 72 h, up to 33 μM. (Cellular ATP, detected with luciferase, serves as a proxy for viable cell number.)
A further data set relates to zinc metalloproteinases. Briefly: Selectivity testing against extended panel of zinc metalloproteinases. As to conditions: ADAM17 versus five other metzincins. The class given is biochemical.
Data set [3] relates to A549 cells. Briefly: Synergy studies, A549 viability assay.
Another data set concerns L622D-PTK7. Briefly: Inhibition of PTK7 shedding in HT1080-L622D cells. It counts as cell-based, human.
The subject of another data set is wtPTK7. The data set can be described thus: Inhibition of PTK7 shedding in SW480 cells. It counts as cell-based.
For the next data set, the target named is ADAM10 (Homo sapiens, UniProt O14672). The data set can be described thus: ADAM10 glycosylated substrate assay. It counts as biochemical.
Chain of ADAM10 (O14672 214-748): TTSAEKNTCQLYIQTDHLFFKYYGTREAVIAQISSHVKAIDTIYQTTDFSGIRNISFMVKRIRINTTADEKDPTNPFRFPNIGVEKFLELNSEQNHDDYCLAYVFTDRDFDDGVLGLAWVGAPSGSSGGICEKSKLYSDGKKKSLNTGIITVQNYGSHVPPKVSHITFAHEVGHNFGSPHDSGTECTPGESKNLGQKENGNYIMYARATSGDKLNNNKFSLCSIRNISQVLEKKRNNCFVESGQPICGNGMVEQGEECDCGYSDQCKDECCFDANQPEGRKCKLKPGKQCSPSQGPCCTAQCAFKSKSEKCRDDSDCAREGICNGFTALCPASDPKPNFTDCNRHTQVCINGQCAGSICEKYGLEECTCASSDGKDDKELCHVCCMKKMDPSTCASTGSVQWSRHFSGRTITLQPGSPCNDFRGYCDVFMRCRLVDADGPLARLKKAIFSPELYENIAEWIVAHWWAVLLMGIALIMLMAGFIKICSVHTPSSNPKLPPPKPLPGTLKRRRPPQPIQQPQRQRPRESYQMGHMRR
The next data set relates to Notch. As to conditions: SKMEL-28, 25 μM; ref Personal communication from Dr. Kaushik (Kansas University Medical Center); cited from earlier work.
The subject of data set [4] is HT1080 cells. The data set can be described thus: Transwell invasion assay. As to conditions: Matrigel. The class given is cell-based, human.
The subject of data set [5] is A549 cells. Briefly: CellTiter Glo cell viability assay. The class given is cell-based. As to conditions: 72 h, up to 33 μM.
The target of the next data set is MMP9 (Homo sapiens, UniProt P14780). Briefly: MMP assay. It counts as biochemical.
Chain of MMP9 (P14780 94-707, species assumed): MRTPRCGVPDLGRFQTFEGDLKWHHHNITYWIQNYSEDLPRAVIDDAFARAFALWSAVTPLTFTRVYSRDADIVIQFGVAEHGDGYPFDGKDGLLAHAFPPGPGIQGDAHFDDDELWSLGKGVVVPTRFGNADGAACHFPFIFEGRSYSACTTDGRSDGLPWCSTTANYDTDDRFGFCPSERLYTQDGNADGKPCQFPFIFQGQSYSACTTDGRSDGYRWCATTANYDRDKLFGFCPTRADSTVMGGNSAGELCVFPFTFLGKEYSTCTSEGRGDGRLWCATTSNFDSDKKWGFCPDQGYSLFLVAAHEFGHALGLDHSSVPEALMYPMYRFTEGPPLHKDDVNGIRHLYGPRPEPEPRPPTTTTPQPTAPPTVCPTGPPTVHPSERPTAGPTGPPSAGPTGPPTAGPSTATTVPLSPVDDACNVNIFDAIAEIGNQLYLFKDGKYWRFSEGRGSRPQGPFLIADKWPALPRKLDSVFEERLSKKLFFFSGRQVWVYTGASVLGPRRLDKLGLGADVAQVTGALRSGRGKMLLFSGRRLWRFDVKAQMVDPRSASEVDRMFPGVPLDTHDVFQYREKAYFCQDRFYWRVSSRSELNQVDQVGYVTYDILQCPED
Another data set has as its target ADAM17 (Homo sapiens, UniProt P78536). Briefly: ADAM17 glycosylated substrate assay. It counts as biochemical.
The next data set addresses MMP14 (Homo sapiens, UniProt P50281). Briefly: MMP assay. The class given is biochemical.
The next data set addresses MMP8 (Homo sapiens, UniProt P22894). Briefly: MMP assay. The class given is biochemical.
The next data set deals with TNFα. Briefly: Inhibition of TNFα shedding in THP-1 cells. The class given is cell-based. The note with it: Homo sapiens, THP-1, read-out: TNFα shedding inhibition.
The target in the next data set is MMP2 (Homo sapiens, UniProt P08253). Briefly: MMP assay. The class given is biochemical.
Chain of MMP2 (P08253 110-660, species assumed): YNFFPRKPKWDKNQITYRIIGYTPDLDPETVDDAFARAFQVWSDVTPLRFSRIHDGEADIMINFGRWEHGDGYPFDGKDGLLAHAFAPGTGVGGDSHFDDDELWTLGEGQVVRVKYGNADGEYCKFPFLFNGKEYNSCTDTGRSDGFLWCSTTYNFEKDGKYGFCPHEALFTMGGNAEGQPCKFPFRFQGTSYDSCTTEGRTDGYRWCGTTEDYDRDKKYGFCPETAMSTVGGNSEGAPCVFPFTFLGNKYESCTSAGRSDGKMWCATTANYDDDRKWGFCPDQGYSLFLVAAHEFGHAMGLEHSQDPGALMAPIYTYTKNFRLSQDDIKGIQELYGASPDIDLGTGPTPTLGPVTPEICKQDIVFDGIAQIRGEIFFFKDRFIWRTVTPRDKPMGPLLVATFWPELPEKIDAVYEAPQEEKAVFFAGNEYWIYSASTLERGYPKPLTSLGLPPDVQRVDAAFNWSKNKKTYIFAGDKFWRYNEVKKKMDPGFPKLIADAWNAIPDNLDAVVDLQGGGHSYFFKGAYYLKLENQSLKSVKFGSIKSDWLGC

Like-named read-outs stand apart in the source and are kept apart here.

Chain of ADAM17 (P78536 215-824): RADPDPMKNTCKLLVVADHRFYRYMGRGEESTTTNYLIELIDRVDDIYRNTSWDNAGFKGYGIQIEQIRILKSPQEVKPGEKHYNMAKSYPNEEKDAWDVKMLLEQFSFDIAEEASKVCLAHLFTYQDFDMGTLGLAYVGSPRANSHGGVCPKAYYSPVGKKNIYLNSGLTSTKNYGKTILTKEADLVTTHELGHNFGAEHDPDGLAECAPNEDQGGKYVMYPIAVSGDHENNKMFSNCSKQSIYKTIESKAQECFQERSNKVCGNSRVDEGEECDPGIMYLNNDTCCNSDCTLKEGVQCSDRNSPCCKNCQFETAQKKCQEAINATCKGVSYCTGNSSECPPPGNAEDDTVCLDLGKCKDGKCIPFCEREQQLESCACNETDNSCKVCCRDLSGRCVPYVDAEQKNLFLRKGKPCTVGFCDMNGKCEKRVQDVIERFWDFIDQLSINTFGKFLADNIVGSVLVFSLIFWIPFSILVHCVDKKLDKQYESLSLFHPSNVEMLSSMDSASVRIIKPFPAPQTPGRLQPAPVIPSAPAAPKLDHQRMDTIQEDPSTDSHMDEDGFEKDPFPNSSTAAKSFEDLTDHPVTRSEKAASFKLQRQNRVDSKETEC
Chain of MMP8 (P22894 101-467, species assumed): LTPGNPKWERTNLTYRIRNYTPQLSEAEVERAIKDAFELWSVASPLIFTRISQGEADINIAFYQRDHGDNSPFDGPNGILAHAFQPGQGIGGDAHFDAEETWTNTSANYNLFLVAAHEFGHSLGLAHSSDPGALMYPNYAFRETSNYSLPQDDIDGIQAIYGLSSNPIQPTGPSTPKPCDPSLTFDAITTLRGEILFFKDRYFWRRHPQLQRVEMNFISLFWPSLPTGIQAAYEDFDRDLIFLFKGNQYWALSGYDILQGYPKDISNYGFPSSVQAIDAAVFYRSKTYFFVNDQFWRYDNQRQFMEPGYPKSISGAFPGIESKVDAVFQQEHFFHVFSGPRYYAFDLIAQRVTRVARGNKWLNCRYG

As to `COC(=O)N1CC2(CC2)C[C@H](C(=O)NO)[C@H]1C(=O)N1CC=C(c2ccccc2)CC1` [INCB3619], the “heregulin shedding in A549 cells” value in [1] was “abrogation of heregulin shedding”. Moreover, in the data set on PTK7, the “shedding of PTK7” value was “able to inhibit”. Besides, the “invasion of HT1080 cells” value with HT1080 cells [2] is given as “able to inhibit”.
As to `O=C1NC[C@H](Cc2ccccc2)N(C[C@@H]2CCCN2C[C@@H](CC2CCCCC2)N2C[C@H](Cc3ccc(O)cc3)N(CCc3ccccc3)C(=O)C2=O)C1=O` [Compound 18, (S)-1((R)-1((S)-2-(((S)-6-Benzyl-2,3-dioxopiperazin-1-yl)methyl)-pyrrolidin-1-yl)-3-cyclohexylpropan-2-yl)-5-(4-hydroxybenzyl)-4-phenethylpiperazine-2,3-dione], the CXCL16 shedding inhibition entry in the data set with CXCL16 is “did not inhibit”. In addition, the inhibition (in general, the change of the read-out against control, counted positive when it falls) at 10 µM with CXCL16 stood at 0%. Further, the inhibition at 40 µM in the data set with betacellulin, in the data set with TGFα and in the data set on Heregulin was 0% throughout. Also, in the data set with HEPG2 cells, the “viability of HEPG2 cells” value was “did not inhibit viability”. Further, the “viability of MDA-MB-231 cells” value in the data set on MDA-MB-231 cells is reported as “did not inhibit viability”.
Consider `CCCC[C@H]1CN([C@@H](Cc2ccc(O)cc2)CN2CCC[C@H]2CN2C(=O)C(=O)NC[C@H]2Cc2ccc3ccccc3c2)C(=O)C(=O)N1CCC12CC3CC(CC(C3)C1)C2` [Compound 16, (S)-4-(2-(Adamantan-1-yl)ethyl)-5-butyl-1-((S)-1-(4-hydroxyphenyl)-3-((S)-2-(((R)-6-(naphthalen-2-ylmethyl)-2,3-dioxopiperazin-1-yl)methyl)pyrrolidin-1-yl)propan-2-yl)piperazine-2,3-dione], for which the CXCL16 shedding inhibition result with CXCL16 is on record as “did not inhibit”. For the same molecule, the inhibition at 10 µM in the data set with CXCL16 stood at 0%. For the same molecule, the inhibition at 40 µM in the data set on betacellulin, in the data set on TGFα and in the data set on Heregulin was 0% throughout. The selectivity profile result with zinc metalloproteinases is listed as “inhibiting only ADAM17”.
Regarding `O=C1NC[C@H](Cc2ccccc2)N(C[C@@H]2CCCN2C[C@H](Cc2ccccc2)N2C[C@H](Cc3ccc(O)cc3)N(CCC34CC5CC(CC(C5)C3)C4)C(=O)C2=O)C1=O` [Compound 20, (S)-4-(2-(Adamantan-1yl)ethyl)-1-((S)-1-((S)-2-(((S)-6-benzyl-2,3-dioxopiperazin-1-yl)methyl)pyrrolidin-1-yl)-3-phenylpropan-2-yl)-5-(4-hydroxybenzyl)piperazine-2,3-dione], the CXCL16 shedding inhibition entry with CXCL16 is on record as “did not inhibit”. In the data set on CXCL16, the inhibition at 10 µM was determined as 0%. In addition, the inhibition at 40 µM with betacellulin, in the data set with TGFα and in the data set with Heregulin was 0% each time. For the same molecule, the “viability of HEPG2 cells” value with HEPG2 cells was “did not inhibit viability”. In addition, in the data set with zinc metalloproteinases, the selectivity profile result was “inhibiting only ADAM17”. Moreover, the “viability of MDA-MB-231 cells” value in the data set with MDA-MB-231 cells is “did not inhibit viability”.
Regarding `CNC(=O)[C@@H](NC(=O)[C@H](CC(C)C)[C@H](O)C(=O)NO)C(C)(C)C` [Marimastat, (2S,3R)-N4-[(1S)-2,2-dimethyl-1-[(methylamino)carbonyl]propyl]-N1,2-dihydroxy-3-(2-methylpropyl)butanediamide, reference compound], the betacellulin shedding inhibition entry in the data set with betacellulin (A549, 10 μM) is “almost complete inhibition”. In the data set on TGFα (A549, PMA, 10 μM), the “soluble TGFα in supernatant” value was “decreased soluble TGFα in the supernatant of A549 cells to the level of non-PMA-treated control”. In [1] (A549 cells), the “shedding of EGFR ligands (heregulin, TGFα, HB-EGF, amphiregulin, EGF)” value is on record as “inhibited shedding of each tested EGFR ligand”.
As for `O=C1NC[C@@H](Cc2ccc(O)cc2)N(C[C@@H]2CCCN2C[C@@H](Cc2ccc3ccccc3c2)N2C[C@H](Cc3ccc(O)cc3)N(CCC34CC5CC(CC(C5)C3)C4)C(=O)C2=O)C1=O` [Compound 17, (5R)-4-(2-((1R,3R)-Adamantan-1-yl)ethyl)-5-(4-hydroxybenzyl)-1-((2R)-1-(2-(((R)-6-(4-hydroxybenzyl)-2,3-dioxopiperazin-1-yl)-methyl)pyrrolidin-1-yl)-3-(naphthalen-2-yl)propan-2-yl)piperazine-2,3-dione], the CXCL16 shedding inhibition result with CXCL16 is “did not inhibit”. Moreover, the inhibition at 10 µM in the data set on CXCL16 worked out at 0%. Moreover, the values for the inhibition at 40 µM in the data set with betacellulin, in the data set with TGFα and in the data set with Heregulin were 0%, 0% and 100%, respectively. Moreover, the “potentiation of gefitinib activity against A549 cells” value with A549 cells [3] (40 μM compound 17) was “potentiated gefitinib activity”. Also, the “potentiation of doxorubicin activity” value in the data set with A549 cells [3] (A549, 40 μM compound 17) is listed as “did not potentiate the activity”. Also, the “potentiation of etoposide activity” value with A549 cells [3] (A549, 40 μM compound 17) is “did not potentiate the activity”. For the same molecule, the “shedding of TGFα” value with TGFα (A549, up to 100 μM) is recorded as “did not affect shedding”. The “viability of HEPG2 cells” value with HEPG2 cells is listed as “did not inhibit viability”. For the same molecule, the PTK7 shedding inhibition is on record as 25–50% in the data set with L622D-PTK7 (HT1080 (L622D-PTK7), PMA, 25–100 μM) and 0–82% in the data set with wtPTK7 (SW480 (wtPTK7), PMA, 25–100 μM). In addition, in the data set on L622D-PTK7 (HT1080-L622D, PMA stimulated, 50 and 100 μM), the “shedding of L622D-PTK7” value is “inhibited shedding”. For the same molecule, the “shedding of wtPTK-7” value in the data set on wtPTK7 (SW480, PMA stimulated, 50 and 100 μM) was “inhibited shedding”. Further, the Heregulin shedding inhibition entry in the data set on Heregulin (A549, PMA, 40 μM) was “completely inhibited shedding”. Also, the “ADAM10 IC50” value at ADAM10 (Table 4 selectivity panel) is listed as “did not inhibit”. Besides, the Notch shedding inhibition with Notch is 0%. Besides, the “viability of MDA-MB-231 cells” value with MDA-MB-231 cells is given as “did not inhibit viability”. In addition, the “invasion of HT1080 cells” value in the data set on HT1080 cells [4] is “dose-dependent inhibition of invasion”. Moreover, in the data set on A549 cells [5], the “viability of A549 cells” value was “no intrinsic activity”.
Turning to `O=C1NC[C@H](Cc2ccccc2)N(C[C@@H]2CCCN2C[C@@H](CC2CCCCC2)N2C[C@H](Cc3ccccc3)N(CCc3ccccc3)C(=O)C2=O)C1=O` [Compound 21, (S)-5-Benzyl-1-((R)-1-((S)-2-(((S)-6-benzyl-2,3-dioxopiperazin-1-yl)methyl)pyrrolidin-1-yl)-3-cyclohexylpropan-2-yl)-4-phenethylpiperazine-2,3-dione], the IC50 (commonly the midpoint of a concentration-inhibition curve) at MMP9 was more than 100 µM; against ADAM17 it was 8.5 µM; on ADAM10, more than 100 µM; at MMP14, more than 100 µM; at MMP8, more than 100 µM; against MMP2 it was more than 100 µM. The inhibition at 40 µM in the data set on betacellulin and with TGFα was 0% in each case. Also, at ADAM17 (read-out: ADAM17 %inhibition at 100 μM), the inhibition at 100 µM was determined as 100%. For the same molecule, the selectivity profile entry in the data set with zinc metalloproteinases is listed as “inhibiting only ADAM17”. Moreover, the inhibition at 25 µM in the data set with TNFα stood at 0%.

These data come from PMC5420329 (Journal of medicinal chemistry, 2015).
